# Test results reported in patent US12448409B2, “Oxysterols and methods of use thereof” (priority 2016, dated 2025).
# Biological target: T1, GlunN1/GluN2A glutamate receptors (Homo sapiens, UniProt Q05586+Q12879)
# T1 construct: expressed in transfected cells
# Experiment: cell-based
# Settings: 3 μM test article; HEK293 cells expressing human GRIN1/GRIN2A; co-application with EC20 L-glutamate and 30 μM glycine; read-out: GluN2A PCA IWB Ephys % potentiation at 3 μM
# Experimental: NMDA potentiation was assessed using the whole cell patch clamp of mammalian cells which expressed NMDA receptors.
# Whole-Cell Patch Clamp of Mammalian Cells (Ionworks Barracuda (IWB)
# The whole-cell patch-clamp technique was used to investigate the effects of compounds on GlunN1/GluN2A glutamate receptors expressed in mammalian cells.
# HEK293 cells were transformed with adenovirus 5 DNA and transfected with cDNA encoding the human GRIN1/GRIN2A genes. Stable transfectants were selected using G418 and Zeocin-resistance genes incorporated into the expression plasmid and selection pressure maintained with G418 and Zeocin in the medium. Cells were cultured in Dulbecco's Modified Eagle Medium/Nutrient Mixture (D-MEM/F-12) supplemented with 10% fetal bovine serum, 100 μg/ml penicillin G sodium, 100 μg/ml streptomycin sulphate, 100 μg/ml Zeocin, 5 μg/ml blasticidin and 500 μg/ml G418.
# Test article effects were evaluated in 8-point concentration-response format (4 replicate wells/concentration). All test and control solutions contained 0.3% DMSO and 0.01% Kolliphor® EL (C5135, Sigma). The test article formulations were loaded in a 384-well compound plate using an automated liquid handling system (SciClone ALH3000, Caliper LifeScienses). The measurements were perfomed using Ion Works Barracuda platform following this procedure:
# Electrophysiological Procedures:
# • a) Intracellular solution (mM): 50 mM CsCl, 90 mM CsF, 2 mM MgCl2, 5 mM EGTA, 10 mM HEPES. Adjust to pH 7.2 with CsOH. • b) Extracellular solution, HB-PS (composition in mM): NaCl, 137; KCl, 1.0; CaCl2, 5; HEPES, 10; Glucose, 10; pH adjusted to 7.4 with NaOH (refrigerated until use). • c) Holding potential: −70 mV, potential during agonist/PAM application: −40 mV. Recording procedure: • a) Extracellular buffer will be loaded into the PPC plate wells (11 μL per well). Cell suspension will be pipetted into the wells (9 μL per well) of the PPC planar electrode. • b) Whole-cell recording configuration will be established via patch perforation with membrane currents recorded by on-board patch clamp amplifiers. • c) Two recordings (scans) will be performed. First, during pre-application of test article alone (duration of pre-application—5 min) and second, during test articles and agonist (EC20 L-glutamate and 30 μM glycine) co-application to detect positive modulatory effects of the test article.
# Test Article Administration: The first pre-application will consist of the addition of 20 μL of 2× concentrated test article solution and, second, of 20 μL of 1× concentrated test article and agonist at 10 μL/s (2 second total application time).
# T1 sequence (Q12879 23-1464, other chains not shown): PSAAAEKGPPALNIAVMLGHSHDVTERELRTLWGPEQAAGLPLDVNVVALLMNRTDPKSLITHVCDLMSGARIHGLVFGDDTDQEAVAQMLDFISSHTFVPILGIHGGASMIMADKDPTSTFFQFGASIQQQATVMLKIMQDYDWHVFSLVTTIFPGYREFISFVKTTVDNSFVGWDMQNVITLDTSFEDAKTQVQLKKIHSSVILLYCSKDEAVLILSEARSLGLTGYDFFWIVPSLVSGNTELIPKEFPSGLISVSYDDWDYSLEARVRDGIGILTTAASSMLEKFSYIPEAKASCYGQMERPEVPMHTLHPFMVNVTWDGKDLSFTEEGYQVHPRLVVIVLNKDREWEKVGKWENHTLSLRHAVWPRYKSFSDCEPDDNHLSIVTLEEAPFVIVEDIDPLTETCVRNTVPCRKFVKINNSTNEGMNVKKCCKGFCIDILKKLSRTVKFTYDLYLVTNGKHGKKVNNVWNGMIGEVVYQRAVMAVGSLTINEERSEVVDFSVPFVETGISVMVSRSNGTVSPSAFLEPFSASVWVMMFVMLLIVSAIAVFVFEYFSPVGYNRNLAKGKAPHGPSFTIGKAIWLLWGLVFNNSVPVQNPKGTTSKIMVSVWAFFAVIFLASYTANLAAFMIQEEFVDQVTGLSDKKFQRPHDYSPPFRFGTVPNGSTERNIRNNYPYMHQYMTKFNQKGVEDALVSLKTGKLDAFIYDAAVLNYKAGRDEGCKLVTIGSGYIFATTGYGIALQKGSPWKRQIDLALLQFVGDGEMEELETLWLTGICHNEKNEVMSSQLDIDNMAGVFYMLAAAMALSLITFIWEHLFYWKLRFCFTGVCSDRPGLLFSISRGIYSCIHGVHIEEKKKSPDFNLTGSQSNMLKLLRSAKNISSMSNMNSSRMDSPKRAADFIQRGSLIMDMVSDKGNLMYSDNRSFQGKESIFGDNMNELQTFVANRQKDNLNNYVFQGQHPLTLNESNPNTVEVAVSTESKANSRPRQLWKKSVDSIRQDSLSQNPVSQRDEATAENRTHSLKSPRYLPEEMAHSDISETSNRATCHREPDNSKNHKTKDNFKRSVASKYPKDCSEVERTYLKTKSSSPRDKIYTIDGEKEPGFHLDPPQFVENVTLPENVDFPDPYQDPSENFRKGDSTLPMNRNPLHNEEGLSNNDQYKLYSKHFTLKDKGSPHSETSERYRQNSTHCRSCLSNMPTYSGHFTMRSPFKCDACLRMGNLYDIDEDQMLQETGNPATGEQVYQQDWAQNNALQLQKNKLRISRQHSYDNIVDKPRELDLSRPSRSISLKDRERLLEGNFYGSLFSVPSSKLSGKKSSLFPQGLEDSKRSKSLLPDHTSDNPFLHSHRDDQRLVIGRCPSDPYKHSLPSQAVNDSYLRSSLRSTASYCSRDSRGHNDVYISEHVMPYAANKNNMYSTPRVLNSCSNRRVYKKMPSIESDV
row,Structure (SMILES),activation at 3 µM
1,C[C@H](CCC1(O)CCC(F)(F)CC1)[C@H]1CC[C@H]2[C@@H]3CC=C4C[C@@](C)(O)CC[C@]4(C)[C@H]3CC[C@]12C [Compound 1],> 150%
2,C[C@H](CCC1(O)CCCCC1)[C@H]1CC[C@H]2[C@@H]3CC=C4C[C@@](C)(O)CC[C@]4(C)[C@H]3CC[C@]12C [Compound 2],> 150%
3,C[C@H](CCC1(O)CCCC1)[C@H]1CC[C@H]2[C@@H]3CC=C4C[C@@](C)(O)CC[C@]4(C)[C@H]3CC[C@]12C [Compound 3],> 150%
4,C[C@H](CCC1(O)CCC1)[C@H]1CC[C@H]2[C@@H]3CC=C4C[C@@](C)(O)CC[C@]4(C)[C@H]3CC[C@]12C [Compound 4],100 to 150%
5,C[C@H](CC[C@]1(O)CCOC1)[C@H]1CC[C@H]2[C@@H]3CC=C4C[C@@](C)(O)CC[C@]4(C)[C@H]3CC[C@]12C [Compound 5-A],100 to 150%
6,C[C@H](CC[C@@]1(O)CCOC1)[C@H]1CC[C@H]2[C@@H]3CC=C4C[C@@](C)(O)CC[C@]4(C)[C@H]3CC[C@]12C [Compound 5-B],> 150%
7,C[C@H](CCC1(O)CCOC1)[C@H]1CC[C@H]2[C@@H]3CC=C4C[C@@](C)(O)CC[C@]4(C)[C@H]3CC[C@]12C (some centres unmarked) [Compound 5],> 150%
8,C[C@H](CCC1(O)CCOCC1)[C@H]1CC[C@H]2[C@@H]3CC=C4C[C@@](C)(O)CC[C@]4(C)[C@H]3CC[C@]12C [Compound 6],100 to 150%
9,C[C@H](CCC1(O)CCN(C)CC1)[C@H]1CC[C@H]2[C@@H]3CC=C4C[C@@](C)(O)CC[C@]4(C)[C@H]3CC[C@]12C [Compound 8],10 to 100%
10,CC(=O)N1CCC(O)(CC[C@@H](C)[C@H]2CC[C@H]3[C@@H]4CC=C5C[C@@](C)(O)CC[C@]5(C)[C@H]4CC[C@]23C)CC1 [Compound 9],> 150%
11,C[C@H](CCC1(O)CCCOC1)[C@H]1CC[C@H]2[C@@H]3CC=C4C[C@@](C)(O)CC[C@]4(C)[C@H]3CC[C@]12C (some centres unmarked) [Compound 11],> 150%
12,CC[C@]1(O)CC[C@@]2(C)C(=CC[C@H]3[C@@H]4CC[C@H]([C@H](C)CCC5(O)CCC(F)(F)CC5)[C@@]4(C)CC[C@@H]32)C1 [Compound 12],> 150%
13,CC[C@]1(O)CC[C@@]2(C)C(=CC[C@H]3[C@@H]4CC[C@H]([C@H](C)CCC5(O)CCC(C)(C)CC5)[C@@]4(C)CC[C@@H]32)C1 [Compound 13],10 to 100%
14,CC[C@]1(O)CC[C@@]2(C)C(=CC[C@H]3[C@@H]4CC[C@H]([C@H](C)CCC5(O)CCOCC5)[C@@]4(C)CC[C@@H]32)C1 [Compound 14],> 150%
15,CC[C@]1(O)CC[C@@]2(C)C(=CC[C@H]3[C@@H]4CC[C@H]([C@H](C)CCC5(O)CCCOC5)[C@@]4(C)CC[C@@H]32)C1 (some centres unmarked) [Compound 15],> 150%
16,C[C@H](CCC1(O)CCC(F)(F)CC1)[C@H]1CC[C@H]2[C@@H]3CC[C@H]4C[C@@](C)(O)CC[C@]4(C)[C@H]3CC[C@]12C [Compound 16],10 to 100%
17,C[C@H](CC[C@]1(O)CCOC1)[C@H]1CC[C@H]2[C@@H]3CC[C@H]4C[C@@](C)(O)CC[C@]4(C)[C@H]3CC[C@]12C [Compound 17],> 150%
18,C[C@H](CCC1(O)CCOCC1)[C@H]1CC[C@H]2[C@@H]3CC[C@H]4C[C@@](C)(O)CC[C@]4(C)[C@H]3CC[C@]12C [Compound 18],> 150%
19,C[C@H](CCC1(O)CCCOC1)[C@H]1CC[C@H]2[C@@H]3CC[C@H]4C[C@@](C)(O)CC[C@]4(C)[C@H]3CC[C@]12C (some centres unmarked) [Compound 19],> 150%
20,C[C@H](CCC1(O)CCC(C)(C)CC1)[C@H]1CC[C@H]2[C@@H]3CC[C@H]4C[C@@](C)(O)CC[C@]4(C)[C@H]3CC[C@]12C [Compound 20],10 to 100%
21,CC[C@]1(O)CC[C@@]2(C)[C@@H](CC[C@@H]3[C@@H]2CC[C@]2(C)[C@@H]([C@H](C)CCC4(O)CCC(F)(F)CC4)CC[C@@H]32)C1 [Compound 21],> 150%
22,CC[C@]1(O)CC[C@@]2(C)[C@@H](CC[C@@H]3[C@@H]2CC[C@]2(C)[C@@H]([C@H](C)CCC4(O)CCC(C)(C)CC4)CC[C@@H]32)C1 [Compound 22],10 to 100%
23,CC[C@]1(O)CC[C@@]2(C)[C@@H](CC[C@@H]3[C@@H]2CC[C@]2(C)[C@@H]([C@H](C)CCC4(O)CCOCC4)CC[C@@H]32)C1 [Compound 23],> 150%
24,CC[C@]1(O)CC[C@@]2(C)[C@@H](CC[C@@H]3[C@@H]2CC[C@]2(C)[C@@H]([C@H](C)CCC4(O)CCCOC4)CC[C@@H]32)C1 (some centres unmarked) [Compound 24],> 150%

# Same assay, conditions: HEK293, read-out: GluN2A PCA IWB Ephys % potentiation at 3 μM
row,Structure (SMILES),activation at 3 µM
1,C[C@H](CCC1(O)CCNCC1)[C@H]1CC[C@H]2[C@@H]3CC=C4C[C@@](C)(O)CC[C@]4(C)[C@H]3CC[C@]12C [Compound 7],100 to 150%
2,C[C@H](CCC1(O)CCC(C)(C)CC1)[C@H]1CC[C@H]2[C@@H]3CC=C4C[C@@](C)(O)CC[C@]4(C)[C@H]3CC[C@]12C [Compound 10],10 to 100%
